IC50 and EC50 data for 13 molecules are collected here from patent publication US11091428B2 (HAPLOGEN GMBH, priority 2016, dated 2021).

The target in test [1] is T1, PLA2G16 (Homo sapiens, UniProt P53816).
T1 construct: Hexa-His (N); made in house; host or cells: E. coli BL21(DE3)
T1 sequence (P53816 1-162): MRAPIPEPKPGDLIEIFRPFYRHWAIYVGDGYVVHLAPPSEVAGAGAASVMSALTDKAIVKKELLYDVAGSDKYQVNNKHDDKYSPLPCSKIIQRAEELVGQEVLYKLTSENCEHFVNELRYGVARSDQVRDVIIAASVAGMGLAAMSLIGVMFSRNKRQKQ
As to the kind of experiment: Enzyme activity assay for PLA2G16 (Red/Green BODIPY PC-A2 fluorescence). Type of test: biochemical. The conditions noted are these: His-tagged PLA2G16, 4 min pre-incubation, 2 nM to 50 μM; read-out: IC50 values of the compounds determined in the enzyme activity assay for PLA2G16. In outline: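 N-His-tagged human PLA2G16 from E. coli, Ni-NTA purified. Pre-incubated 4 min with compound (2 nM–50 μM final) in pH 8.5 Tris/NaCl buffer with 5 mM glutathione, then BODIPY PC-A2 in DOPC/DOPG/cholesterol vesicles added. Fluorescence (ex 480/em 530 nm) increase over 10 min taken as activity; IC50 by non-linear regression.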

The subject of test [2] is picornaviruses (CVB1, HRV-A2, HRV-A23, EV-68). In words: Anti-picornavirus cytopathic effect (CPE) reduction assay on HeLa H1 cells. The test is classed as cell-based. Conditions: Enterovirus B, HeLa H1, 48 h, HeLa H1 cells, 48 h, category from averaging the EC50 values from four picornaviruses (CVB1, HRV-A2, HRV-A23, EV68); read-out: EC50 values of the compounds determined in the anti-picornavirus assay. In outline:
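HeLa H1 cells pre-treated 2 h with serially diluted compound in DMEM/2% FBS, then infected at an MOI giving full CPE in 2 days. After 48 h at 37° C, viability read by CellTiterBlue fluorescence (ex 560/em 590 nm), normalised to infected and uninfected vehicle controls; EC50 by non-linear regression, category from mean of four viruses.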

The structures appear in SMILES notation.

In general, IC50 refers to the point on the concentration scale where inhibition reaches its midpoint. As a reminder, the EC50 is the concentration at which the effect is half-maximal. With `CC(C(=O)C(=O)NCC1CC1)N(C=O)CC1CCN(C(=O)C2CCCCC2)CC1` (centres unmarked) [FP 81, 3-{N-[(1-Cyclohexanecarbonylpiperidin-4-yl)methyl]formamido}-N-(cyclopropylmethyl)-2-oxobutanamide], in test [1], the IC50 lay within 1 to 10 µM. Further, the EC50 in test [2] is greater than 10 µM.

For `CC(C)SCCNC(=O)C(=O)C1CCC(=O)N1Cc1ccc(Cl)cc1` (centres unmarked) [FP 257, 2-{1-[(4-Chlorophenyl)methyl]-5-oxopyrrolidin-2-yl}-2-oxo-N-[2-(propan-2-ylsulfanyl)-ethyl]acetamide], in test [1], the half-inhibitory concentration (IC50) was less than 1 µM. Moreover, the EC50 in test [2] was less than 1 µM.

For `O=C(NCCF)C(=O)[C@H]1CCC(=O)N1Cc1ccccc1` [FP 282, 2-[(2R)-1-Benzyl-5-oxopyrrolidin-2-yl]-N-(2-fluoroethyl)-2-oxoacetamide], the IC50 in test [1] was less than 1 µM. Moreover, in test [2], the EC50 is less than 1 µM.

As to `CC(C)CNC(=O)C(=O)C(C)N(C=O)Cc1ccccc1` (centres unmarked) [FP 47, 3-(N-Benzylformamido)-N-(2-methylpropyl)-2-oxobutanamide], in test [1], the half-inhibitory concentration (IC50) was less than 1 µM. The EC50 in test [2] is 1 to 10 µM.

Regarding `CC(C)CC(C(=O)C(=O)NCC1CC1)N(C=O)CC1CCOCC1` (centres unmarked) [FP 63, N-(Cyclopropylmethyl)-5-methyl-3-{N-[(oxan-4-yl)methyl]formamido}-2-oxohexanamide], the half-inhibitory concentration (IC50) in test [1] is less than 1 µM. In test [2], the EC50 is less than 1 µM.

`COc1ccccc1CNC(=O)C(=O)C(C)N(C=O)c1ccccc1OC` (centres unmarked) [FP 95, 3-[N-(2-Methoxyphenyl)formamido]-N-[(2-methoxyphenyl)methyl]-2-oxobutanamide]: the 50% inhibitory concentration (IC50) in test [1] is less than 1 µM. Further, the EC50 in test [2] fell in the range of 1 to 10 µM.

Turning to `CCC(NC(=O)c1ccccc1)C(=O)C(=O)NC1CC1` (centres unmarked) [FP 183, N-Cyclopropyl-2-oxo-3-(phenylformamido)pentanamide], the IC50 in test [1] was 1 to 10 µM. Besides, the EC50 in test [2] was greater than 10 µM.

As for `CC(C(=O)C(=O)NCc1cccc(Cl)c1)N(C=O)CC(C)(C)C` (centres unmarked) [FP 23, N-[(3-Chlorophenyl)methyl]-3-[N-(2,2-dimethylpropyl)formamido]-2-oxobutanamide], the IC50 in test [1] was less than 1 µM. In test [2], the EC50 was less than 1 µM.

With `COc1ccccc1N(C=O)C(C)C(=O)C(=O)NCC1CCCCC1` (centres unmarked) [FP 25, N-(Cyclohexylmethyl)-3-[N-(2-methoxyphenyl)formamido]-2-oxobutanamide], the IC50 in test [1] is less than 1 µM. Further, in test [2], the EC50 was less than 1 µM.

In the case of `O=C(NC1CCN(C(=O)NC2CCCC2)CC1)C(=O)[C@H]1CCC(=O)N1Cc1ccccc1` [FP 325, 4-{2-[(2R)-1-Benzyl-5-oxopyrrolidin-2-yl]-2-oxoacetamido}-N-cyclopentylpiperidine-1-carboxamide], the IC50 in test [1] was less than 1 µM. Also, the half-maximal effective concentration (EC50) in test [2] is less than 1 µM.

On to `CCCC(C(=O)C(=O)NCC1CC1)N(C=O)CC1CCOCC1` (centres unmarked) [FP 58, N-(Cyclopropylmethyl)-3-{N-[(oxan-4-yl)methyl]formamido}-2-oxohexanamide], for which, in test [1], the IC50 is less than 1 µM. The EC50 in test [2] was 1 to 10 µM.

For `CC(NC(=O)C1CCN(CC(F)(F)F)CC1)C(=O)C(=O)NCC1CCCCC1` (centres unmarked) [FP 206, N-(Cyclohexylmethyl)-2-oxo-3-{[1-(2,2,2-trifluoroethyl)piperidin-4-yl]formamido}-butanamide], the half-inhibitory concentration (IC50) in test [1] was less than 1 µM. For the same molecule, the EC50 in test [2] fell in the range of 1 to 10 µM.

As to `O=CN(CC(=O)C(=O)NCC1CC1)Cc1ccccc1` [FP 193, 3-(N-Benzylformamido)-N-(cyclopropylmethyl)-2-oxopropanamide], the IC50 in test [1] is less than 1 µM. In addition, the EC50 in test [2] is less than 1 µM.
